Assay results as given in article PMC2833169, “Anti-malarial activity of a non-piperidine library of next-generation quinoline methanols” (Malaria Journal, 2010).
In brackets after ≈: the same amount, converted by molar mass. Read-outs that look alike come from different tables or passages of the source.

Experiments:
[1] = system: P. falciparum strain W2; assay: labeled hypoxanthine susceptibility assay, P. falciparum W2; type: cell-based, Plasmodium falciparum; details: Plasmodium falciparum
Protocol: (§1) The in vitro activities of quinoline methanols against P. falciparum strains W2, D6, TM91C235, and TM90C2A were evaluated using the traditional labeled hypoxanthine assay of Desjardins et al as modified by Milhous et al. These four P. falciparum strains were selected since they have various levels of resistance to conventional anti-malarials.

[2] = system: P. falciparum strain D6; assay: labeled hypoxanthine susceptibility assay, P. falciparum D6; type: cell-based, Plasmodium falciparum; details: Plasmodium falciparum
Protocol: as §1

[3] = system: P. falciparum strain TM91C235; assay: labeled hypoxanthine susceptibility assay, P. falciparum TM91C235; type: cell-based, Plasmodium falciparum; details: Plasmodium falciparum
Protocol: as §1

[4] = system: P. falciparum strain TM90C2A; assay: labeled hypoxanthine susceptibility assay, P. falciparum TM90C2A; type: cell-based, Plasmodium falciparum
Protocol: as §1

[5] = in vitro; details: mouse
Protocol: (§2) General cytotoxicity was assessed by first determining LC50 's against a rodent macrophage (RAW) cell line using the 3-(4,5-dimethylthiazole-2-yl)-2,5-diphenyltetrazolium bromide (MTT) assay as described in one of our earlier studies. This screen was conducted to identify compounds that may require de-selection due to generalized toxicity. […] In vitro neurocytotoxicity was assessed by determining LC50s against primary mouse neurons using the MTT assay as described previously. Inhibition of the A2A and A1 receptors was determined at 200 nM in duplicate by Caliper Biosciences (Hanover, Maryland).

[6] = in vitro; details: dog, MDCK-MDR1, pH 7.4
Protocol: (§3) For this reason, the apparent permeability of selected compounds across MDR1-transfected MDCK cell monolayers was determined. This assay is an in vitro surrogate of the blood-brain barrier.
(§4) Permeability was determined by Absorption Systems (Exton, PA). MDR1-MDCK cell monolayers were grown to confluence on collagen-coated, microporous, polycarbonate membranes in 12-well Costar Transwell plates. […] The permeability assay buffer was Hanks Balanced Salt Solution containing 10 mM HEPES and 15 mM glucose at a pH of 7.4. A known p-glycoprotein inhibitor cyclosporin A (CSA) was also added to the assay buffer at 10 μM. Bovine serum albumin (1%) was added to the receiver well. The dosing solution concentrations of the test compounds were 5.0 μM in the assay buffer. All cell monolayers were first pre-incubated for 30 minutes with assay buffer. After 30 minutes, the buffer was removed, replaced with fresh buffer, and time was recorded as 0. […] Cell monolayers were dosed on the apical side (A-to-B) or basolateral side (B-to-A) and incubated at 37°C with 5% CO2 in a humidified incubator. After 2 hours, aliquots were taken from the receiver chambers. Samples were taken from the donor chamber at 0 and 2 hours. Each determination was performed in duplicate. The lucifer yellow flux was also measured for each monolayer to ensure no damage was inflicted to the cell monolayers during the flux period. All samples were assayed by LC/MS/MS using electrospray ionization.
(§5) Apparent permeability in the apical (A-B direction), PappA-B, and percent recovery are reported. Apparent permeability is a measure of the rate of transport across the cell monolayer. Percent recovery refers to the amount of compound recoverable at the end of the assay. Low recovery may indicate non-specific binding to assay plates, instability or accumulation in the cell pellet.
(§6) The apparent permeability, Papp, and percent recovery were calculated as follows:
(§7) Papp = (dCr/dt) × Vr/(A × C0) (1)
(§8) Percent Recovery = 100 × ((Vr × Cr^final) + (Vd × Cd^final))/(Vd × […]) (2)

[7] = system: MDR1-transfected MDCK cell monolayers; assay: in vitro
Protocol: as §3, §4, §5, §6, §7, §8

[8] = metabolic stability in mouse liver microsomes; type: in vitro ADME
Protocol: (§9) Interesting compounds were also submitted for drug-drug interaction and metabolic stability assays. Low IC50s against specific cytochrome P450 isoforms may indicate the potential for a harmful drug interaction to occur in vivo with substrates of that isoform. A lack of metabolic stability in vitro may indicate potential metabolic instability in vivo, and, therefore, a shorter half-life. Drug interaction potential was evaluated in vitro using BD Gentest (Franklin Lakes, NJ) CYP450 inhibition kits as recommended by the manufacturer. Metabolic stability assessments were conducted using in vitro liver microsomes. […] The reaction is started with the addition of 1 U/mL glucose-6-phosphate dehydrogenase G6PD. The mixture is incubated on a shaking platform at 37°C, and aliquots are taken and quenched with the addition of an equal volume of cold acetonitrile at 0, 10, 20, 30, and 60 min. Samples are centrifuged at 3700 rpm for […] at 20°C to remove debris. Sample quantification is carried out by LC/MS, and metabolic half-life is calculated by log plots of the total ion chromatograph area remaining.

[9] = in vitro; details: mouse; remark: listed apart in the source
Protocol: as §2

[10] = target: T1, A2A receptor (Homo sapiens, UniProt P29274); assay: inhibition of the A2A receptor at 200 nM; type: binding; details: read-out: % A2A inhibition at 200 nM
T1 construct: Caliper Biosciences (contract screen)
Protocol: as §2

[11] = target: T2, A1 receptor (Homo sapiens, UniProt P30542); assay: inhibition of the A1 receptor at 200 nM; type: binding; details: duplicate
T2 construct: Caliper Biosciences (contract screen)
T2 sequence (P30542 1-326): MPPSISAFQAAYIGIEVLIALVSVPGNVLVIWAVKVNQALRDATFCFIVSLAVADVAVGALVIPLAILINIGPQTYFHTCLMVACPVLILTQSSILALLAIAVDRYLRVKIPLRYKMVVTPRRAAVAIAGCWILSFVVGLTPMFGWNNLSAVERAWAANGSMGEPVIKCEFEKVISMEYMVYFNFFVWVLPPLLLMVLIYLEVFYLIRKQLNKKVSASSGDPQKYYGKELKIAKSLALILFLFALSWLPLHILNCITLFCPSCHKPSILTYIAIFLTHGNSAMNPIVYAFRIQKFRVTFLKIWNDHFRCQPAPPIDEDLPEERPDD
Protocol: as §2

[12] = system: rodent macrophage (RAW) cell line; assay: cells; details: Mus musculus, Macrophage, read-out: Macrophage IC50
Protocol: as §2

[13] = target: T3, CYP450 1A2 (Homo sapiens, UniProt P05177); assay: CYP450 inhibition kit (drug-drug interaction), 1A2; type: biochemical
T3 construct: purchased BD Gentest (Franklin Lakes, NJ)
T3 sequence (P05177 1-516): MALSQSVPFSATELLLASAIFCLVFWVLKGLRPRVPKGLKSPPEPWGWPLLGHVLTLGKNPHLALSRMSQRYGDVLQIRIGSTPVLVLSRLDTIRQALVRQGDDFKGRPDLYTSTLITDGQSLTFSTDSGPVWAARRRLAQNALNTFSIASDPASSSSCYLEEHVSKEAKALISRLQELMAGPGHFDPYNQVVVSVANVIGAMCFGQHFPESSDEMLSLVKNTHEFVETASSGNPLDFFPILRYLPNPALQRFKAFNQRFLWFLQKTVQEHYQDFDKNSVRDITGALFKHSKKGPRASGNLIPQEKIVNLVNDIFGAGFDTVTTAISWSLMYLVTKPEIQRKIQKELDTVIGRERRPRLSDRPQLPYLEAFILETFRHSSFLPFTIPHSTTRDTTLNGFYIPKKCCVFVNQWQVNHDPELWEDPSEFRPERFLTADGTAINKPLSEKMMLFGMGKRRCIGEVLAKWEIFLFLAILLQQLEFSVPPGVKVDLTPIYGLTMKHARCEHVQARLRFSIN
Protocol: as §9, with “Low” for “Interesting compounds were also submitted for drug-drug interaction and metabolic stability assays. Low”

[14] = target: T4, CYP450 2C9 (Homo sapiens, UniProt P11712); assay: CYP450 inhibition kit (drug-drug interaction), 2C9; type: biochemical
T4 construct: purchased BD Gentest (Franklin Lakes, NJ)
Protocol: as §9, with “Low” for “Interesting compounds were also submitted for drug-drug interaction and metabolic stability assays. Low”

[15] = target: T5, CYP450 2C19 (Homo sapiens, UniProt P33261); assay: CYP450 inhibition kit (drug-drug interaction), 2C19; type: biochemical
T5 construct: purchased BD Gentest (Franklin Lakes, NJ)
Protocol: as §9, with “Low” for “Interesting compounds were also submitted for drug-drug interaction and metabolic stability assays. Low”

[16] = target: T6, CYP450 2D6 (Homo sapiens, UniProt P10635); assay: CYP450 inhibition kit (drug-drug interaction), 2D6; type: biochemical
T6 construct: purchased BD Gentest (Franklin Lakes, NJ)
Protocol: as §9, with “Low” for “Interesting compounds were also submitted for drug-drug interaction and metabolic stability assays. Low”

[17] = target: T7, CYP450 3A4 (Homo sapiens, UniProt P08684); assay: CYP450 inhibition kit (drug-drug interaction), 3A4; type: biochemical
T7 construct: purchased BD Gentest (Franklin Lakes, NJ)
Protocol: as §9, with “Low” for “Interesting compounds were also submitted for drug-drug interaction and metabolic stability assays. Low”

[18] = D6, read-out: IC90 Pf D6, P. falciparum D6, mefloquine: historical mean +/- SD (n)
[19] = Plasmodium falciparum, TM90C2A, read-out: IC90 Pf C2A
[20] = Plasmodium falciparum, TM90C2A; read-out: IC90 PfC2A
[21] = dog, MDCK-MDR1, 2 h, 5 μM, pH 7.4
[22] = Figure 3, species of microsomes not given

T5 sequence (P33261 whole entry): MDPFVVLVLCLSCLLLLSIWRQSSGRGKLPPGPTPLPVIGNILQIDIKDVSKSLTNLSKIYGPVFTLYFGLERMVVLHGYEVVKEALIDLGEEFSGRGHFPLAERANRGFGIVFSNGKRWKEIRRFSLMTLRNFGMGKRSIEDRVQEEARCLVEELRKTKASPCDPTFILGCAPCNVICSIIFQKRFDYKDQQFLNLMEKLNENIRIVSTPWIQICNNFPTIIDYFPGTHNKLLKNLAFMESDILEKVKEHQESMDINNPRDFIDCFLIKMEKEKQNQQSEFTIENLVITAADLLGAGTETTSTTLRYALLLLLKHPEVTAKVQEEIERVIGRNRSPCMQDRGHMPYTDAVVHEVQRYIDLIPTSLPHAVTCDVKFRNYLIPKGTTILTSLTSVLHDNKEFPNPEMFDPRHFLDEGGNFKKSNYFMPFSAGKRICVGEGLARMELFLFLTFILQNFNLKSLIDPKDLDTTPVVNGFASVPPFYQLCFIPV
T1 sequence (P29274 whole entry): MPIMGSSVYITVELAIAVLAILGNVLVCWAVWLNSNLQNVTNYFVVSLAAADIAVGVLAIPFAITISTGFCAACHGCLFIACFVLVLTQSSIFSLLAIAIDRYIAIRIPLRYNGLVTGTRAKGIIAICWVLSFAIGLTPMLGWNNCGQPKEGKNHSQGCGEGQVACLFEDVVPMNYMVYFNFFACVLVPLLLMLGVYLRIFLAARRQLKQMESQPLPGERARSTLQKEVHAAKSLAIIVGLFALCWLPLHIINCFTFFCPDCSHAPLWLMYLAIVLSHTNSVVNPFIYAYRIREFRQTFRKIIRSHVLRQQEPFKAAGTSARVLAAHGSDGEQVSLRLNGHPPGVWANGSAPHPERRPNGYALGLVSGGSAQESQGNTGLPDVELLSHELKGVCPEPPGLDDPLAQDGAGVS
T4 sequence (P11712 whole entry): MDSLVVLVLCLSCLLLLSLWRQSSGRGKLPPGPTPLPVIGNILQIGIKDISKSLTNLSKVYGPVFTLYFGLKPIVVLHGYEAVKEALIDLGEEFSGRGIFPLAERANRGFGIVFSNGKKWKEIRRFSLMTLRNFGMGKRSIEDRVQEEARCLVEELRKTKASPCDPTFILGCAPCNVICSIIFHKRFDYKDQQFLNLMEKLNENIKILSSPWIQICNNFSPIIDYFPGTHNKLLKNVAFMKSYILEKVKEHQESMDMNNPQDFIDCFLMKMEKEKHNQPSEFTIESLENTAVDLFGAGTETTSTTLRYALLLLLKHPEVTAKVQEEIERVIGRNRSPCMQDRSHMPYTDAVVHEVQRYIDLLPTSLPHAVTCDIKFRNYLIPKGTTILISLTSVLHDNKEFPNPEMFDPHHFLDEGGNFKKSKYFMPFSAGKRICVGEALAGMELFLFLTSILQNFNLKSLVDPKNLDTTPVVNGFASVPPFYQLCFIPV
T7 sequence (P08684 whole entry): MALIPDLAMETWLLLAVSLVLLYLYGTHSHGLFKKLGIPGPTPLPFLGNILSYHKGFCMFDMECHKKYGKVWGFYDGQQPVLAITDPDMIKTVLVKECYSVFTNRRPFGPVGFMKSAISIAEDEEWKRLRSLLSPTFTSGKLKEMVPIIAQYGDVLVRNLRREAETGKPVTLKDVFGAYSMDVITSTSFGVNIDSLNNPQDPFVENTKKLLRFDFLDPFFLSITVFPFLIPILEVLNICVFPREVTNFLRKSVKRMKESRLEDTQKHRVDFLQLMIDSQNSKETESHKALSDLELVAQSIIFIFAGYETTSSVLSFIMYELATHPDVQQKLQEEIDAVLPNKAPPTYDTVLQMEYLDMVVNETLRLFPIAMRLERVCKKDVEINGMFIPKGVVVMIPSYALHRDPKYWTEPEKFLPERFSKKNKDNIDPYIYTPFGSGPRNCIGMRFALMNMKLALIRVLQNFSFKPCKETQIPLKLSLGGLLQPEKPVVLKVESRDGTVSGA
T6 sequence (P10635 whole entry): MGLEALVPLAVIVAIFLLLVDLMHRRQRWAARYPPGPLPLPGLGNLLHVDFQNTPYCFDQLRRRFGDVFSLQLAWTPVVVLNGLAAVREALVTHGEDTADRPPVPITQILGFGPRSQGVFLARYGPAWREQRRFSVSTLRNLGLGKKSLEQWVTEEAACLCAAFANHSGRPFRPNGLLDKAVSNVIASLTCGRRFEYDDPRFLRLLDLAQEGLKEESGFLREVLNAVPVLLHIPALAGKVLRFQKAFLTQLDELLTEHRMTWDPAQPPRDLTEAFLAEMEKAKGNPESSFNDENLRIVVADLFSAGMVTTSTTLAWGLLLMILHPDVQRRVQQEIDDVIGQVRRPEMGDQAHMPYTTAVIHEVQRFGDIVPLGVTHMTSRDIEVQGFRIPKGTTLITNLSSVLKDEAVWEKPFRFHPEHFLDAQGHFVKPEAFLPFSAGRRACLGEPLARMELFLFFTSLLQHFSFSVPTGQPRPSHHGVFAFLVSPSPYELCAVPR

| SMILES | IC90 ([1]; W2, read-out: IC90 Pf W2) | IC90 [2, 18] | IC90 ([3]; read-out: IC90 Pf C235) | IC90 [4, 19] | IC90 [4, 20] | CC50 [5] | Papp A→B at 2 h, 5 μM [6] | % recovery (MDCK-MDR1 permeability assay) [7, 21] | HL in Microsomes [8, 22] | CC50 [9] | other results |
| --- | --- | --- | --- | --- | --- | --- | --- | --- | --- | --- | --- |
| CCCCNCC(O)c1cc(C(F)(F)F)nc2c(C(F)(F)F)cccc12 (racemic) [WR177000] | 1.7 ng/mL (≈ 0.00447 µM) | 0.0067 µg/mL (≈ 0.0176 µM) | 0.0089 µg/mL (≈ 0.0234 µM) | 0.0123 µg/mL | 32 nM | 2.78 µg/mL (≈ 7.31 µM) | 25.4 ×10⁻⁶ cm/s | 58% | 37 min |  |  |
| OC(c1cc(C(F)(F)F)nc2c(C(F)(F)F)cccc12)C1CCCCN1 (stereo not drawn) [Mefloquine, mefloquine, reference compound] | 6.2 ± 2.8 ng/mL (≈ 0.0164 µM) | 0.017 ± 0.011 µg/mL (≈ 0.0449 µM) | 0.052 ± 0.03 µg/mL (≈ 0.137 µM) | 0.074 ± 0.032 µg/mL |  | 3.72 ± 1.51 µg/mL (≈ 9.84 µM) |  |  |  | 41 µM | IC90 ([4]; Plasmodium falciparum, TM90C2A, read-out: IC90 PfC2A): 171 nM; inhibition at 0.2 µM [10]: 62%; inhibition at 0.2 µM [11]: 4%; PappA-B MDCK-MDR1 ([7]; apical (A-B) direction, 5.0 μM, 10 μM cyclosporin A, 2 h, mefloquine average of n = 3): 9.4 10^-6 cm/s; % recovery (MDCK-MDR1 permeability assay) ([7]; compound recoverable at end of assay): < 40%; HL in Microsomes ([8]; 1 μM, pH 7.4): > 60 min; half-life at 1 μM ([8]; mouse, microsomes, pH 7.4): > 60 min |
| CCC(C)CNCC(O)c1cc(C(F)(F)F)nc2c(C(F)(F)F)cccc12 (stereo not drawn) [WR308387] | 1.2 ng/mL (≈ 0.00304 µM) | 0.007 µg/mL (≈ 0.0178 µM) | 0.012 µg/mL (≈ 0.0304 µM) | 0.011 µg/mL | 26 nM |  | 18 ×10⁻⁶ cm/s | 42% |  | > 120 µM | IC90 ([1]; W2, read-out: PF W2 IC90): 1.19 ng/mL (≈ 0.00302 µM); IC90 ([2]; D6, read-out: PF D6 IC90, P. falciparum D6): 0.00695 µg/mL (≈ 0.0176 µM); IC90 ([3]; read-out: PF C235 IC90): 0.0116 µg/mL (≈ 0.0293 µM); IC90 ([4]; Plasmodium falciparum, TM90C2A, read-out: PF C2A IC90): 0.011 µg/mL; CSI (C2A/W2) ([4]; ratio of IC90 C2A to IC90 W2): 9.2; IC50 [12]: 20.8 µM; half-life at 1 μM ([8]; pH 7.4, mouse liver microsomes, 1 μM, read-out: Half-life in mouse micro): 20 min; IC50 [13]: 2100 nM; IC50 [14]: 11 µM; IC50 [15]: 7 µM; IC50 [16]: 2000 nM; IC50 [17]: > 40 µM |
| OC(CNCC1CCCN1)c1cc(C(F)(F)F)nc2c(C(F)(F)F)cccc12 (stereo not drawn) [WR308621] | 46 ng/mL (≈ 0.113 µM) | 0.092 µg/mL (≈ 0.226 µM) | 0.1 µg/mL (≈ 0.245 µM) | 0.198 µg/mL |  | 20.3 µg/mL (≈ 49.8 µM) | < 3.3 ×10⁻⁶ cm/s | 28% | > 60 min |  |  |
| CCCCNCCNCC(O)c1cc(C(F)(F)F)nc2c(C(F)(F)F)cccc12 (stereo not drawn) [WR318746] | 90 ng/mL (≈ 0.213 µM) | 0.155 µg/mL (≈ 0.366 µM) | 0.283 µg/mL (≈ 0.668 µM) | 0.319 µg/mL |  | 28.5 µg/mL (≈ 67.4 µM) | 5.9 ×10⁻⁶ cm/s | 42% | > 60 min |  |  |
| OC(CNCC12CCC(C1)NC2)c1cc(C(F)(F)F)nc2c(C(F)(F)F)cccc12 (stereo not drawn) [WR319535/581] | 275 ng/mL (≈ 0.635 µM) | 0.075 µg/mL (≈ 0.173 µM) | 0.26 µg/mL (≈ 0.6 µM) | 0.251 µg/mL |  | 4.11 µg/mL (≈ 9.48 µM) | 2 ×10⁻⁶ cm/s | 52% | > 60 min |  |  |
